In patent publication US8450067B2, “Method for obtaining anti-idiotype antibodies” (Omrix Biopharmaceuticals Inc., priority 2002, dated 2013):
Like-named read-outs stand apart in the source and are kept apart here.

How the values were obtained:
[1] = system: control IgG (IgG purified from one donor); test: Direct binding ELISA, negative control immunoglobulin; design: species or system human
Experimental: (§1) The binding of anti-Id to the peptides was tested by ELISA.
(§2) ELISA plates were coated by 10 ug/ml of peptides in PBS overnight at 4° C. The plates were blocked with 3% BSA for 1hr at 37° C. Anti-Id was added at different concentrations. IgG purified from one donor was used as negative control.
(§3) The binding of the immunoglobulin was probed with goat anti-human IgG conjugated to alkaline phosphatase and the appropriate substrate. Between each step, extensive washings were performed with 0.05% PBS-Tween.
(§4) The same protocol was used as above, but the peptides used in this study were taken from the literature except for peptide number 1 which is the first peptide in the previous experiment.

[2] = system: anti-anti-dsDNA (anti-Id) isolated from IVIG; test: Direct binding of anti-Id to the synthetic peptides by ELISA; design: species or system human
Experimental: as §1, §2, §3, §4

[3] = system: immunoglobulin eluted from a peptide column bearing the peptide 706; test: ELISA of peptide column eluate with biotinylated peptides (706 column); format: binding, human; conditions: FIG. 3; biotinylated peptide 1 μg/ml
Experimental: (§5) To measure the binding efficacy of peptide column eluates (706 and 707) the following ELISA was performed:
(§6) Microtiter plates (Costar, USA) were coated overnight at 2-8° C. with 10 μg/ml NeutrAvidin (Pierce, USA) suspended in 0.1M, pH 8.8, of carbonate-bicarbonate buffer (Sigma USA). The coating solution was removed, washed three times with washing buffer (1×PBS) and 200 μl of blocking solution (freshly prepared 1% I Block, Tropix, USA) per well was added and incubated for 1 hour at 37° C. Coated and blocked plates can be stored at −20° C. for a month before use.
(§7) Tested samples diluted in the blocking solution were mixed in a separate tube with 1 μg/ml (final concentration) of the appropriate biotinylated peptide and the mixture was incubated for 1 hour at 37° C. 100 μl from each reaction tube was then transferred to the blocked microtiter plate and incubated at 37° C. for ½ hour. A 100 μl of 1:5000 Alkaline Phosphatase conjugate goat anti human IgG (Heavy and light chain from Jackson, USA) diluted in the blocking buffer was applied into the microtiter well and incubated for 1 hour. […] The measurement was done photometrically at 405 nm.

[4] = system: immunoglobulin elution peak from a peptide column bound with peptide 707; test: ELISA of peptide column eluate with biotinylated peptides (707 column); format: binding, human; conditions: FIG. 4
Experimental: as §5, §6, §7

[5] = system: mice; conditions: responder mice (BALB/c, SJL), cited from earlier work
[6] = Table 2, anti-Id 10 μg/ml, plates coated with 10 ug/ml peptide

DWLYSRS [Pep 13]
binding of control IgG to peptide (OD at 405 nm) ([1]; Table 2, control IgG 1 μg/ml): 0.069 | binding of control IgG to peptide (OD at 405 nm) ([1]; Table 2, control IgG 5 μg/ml): 0.078 | binding of anti-Id to peptide (OD at 405 nm) ([2]; Table 2, anti-Id 1 μg/ml): 0.112 | binding of anti-Id to peptide (OD at 405 nm) ([2]; Table 2, anti-Id 2.5 μg/ml): 0.099 | binding of anti-Id to peptide (OD at 405 nm) ([2]; Table 2, anti-Id 5 μg/ml): 0.387 | binding of anti-Id to peptide (OD at 405 nm) [2, 6]: 0.748

GIWELSKEPSQKVWQMYYGT [Pep R706, reverse order of CDR1, used as a control]
binding of 706 column eluate to biotinylated peptide [3]: not | binding of 707 column eluate to biotinylated peptide ([4]; biotinylated peptide 1 μg/ml): reacted even more strongly

KHETTET [Pep 1]
binding of control IgG to peptide (OD at 405 nm) ([1]; Table 2, control IgG 1 μg/ml): 0.013 | binding of control IgG to peptide (OD at 405 nm) ([1]; Table 2, control IgG 5 μg/ml): 0.016 | binding of control IgG to peptide (OD at 405 nm) ([1]; Table 3, Control IgG 1 μg/ml): 0.044 | binding of control IgG to peptide (OD at 405 nm) ([1]; Table 3, Control IgG 5 μg/ml): 0.043 | binding of anti-Id to peptide (OD at 405 nm) ([2]; Table 2, anti-Id 1 μg/ml): 0.046 | binding of anti-Id to peptide (OD at 405 nm) ([2]; Table 2, anti-Id 2.5 μg/ml): 0.269 | binding of anti-Id to peptide (OD at 405 nm) ([2]; Table 2, anti-Id 5 μg/ml): 1.329 | binding of anti-Id to peptide (OD at 405 nm) [2, 6]: 1.815 | binding of anti-Id to peptide (OD at 405 nm) ([2]; Table 3 (literature peptides), anti-Id 10 μg/ml): 1.21 | binding of anti-Id to peptide (OD at 405 nm) ([2]; Table 3, anti-Id 1 μg/ml): 0.041 | binding of anti-Id to peptide (OD at 405 nm) ([2]; Table 3, anti-Id 2.5 μg/ml): 0.074 | binding of anti-Id to peptide (OD at 405 nm) ([2]; Table 3, anti-Id 5 μg/ml): 0.216

KYKRKYP [Pep 15]
binding of control IgG to peptide (OD at 405 nm) ([1]; Table 2, control IgG 1 μg/ml): 0.037 | binding of control IgG to peptide (OD at 405 nm) ([1]; Table 2, control IgG 5 μg/ml): 0.068 | binding of anti-Id to peptide (OD at 405 nm) ([2]; Table 2, anti-Id 1 μg/ml): 0.049 | binding of anti-Id to peptide (OD at 405 nm) ([2]; Table 2, anti-Id 2.5 μg/ml): 0.067 | binding of anti-Id to peptide (OD at 405 nm) ([2]; Table 2, anti-Id 5 μg/ml): 0.117 | binding of anti-Id to peptide (OD at 405 nm) [2, 6]: 0.287

PLPDWRV [Pep 12]
binding of control IgG to peptide (OD at 405 nm) ([1]; Table 2, control IgG 1 μg/ml): 0.043 | binding of control IgG to peptide (OD at 405 nm) ([1]; Table 2, control IgG 5 μg/ml): 0.045 | binding of anti-Id to peptide (OD at 405 nm) ([2]; Table 2, anti-Id 1 μg/ml): 0.042 | binding of anti-Id to peptide (OD at 405 nm) ([2]; Table 2, anti-Id 2.5 μg/ml): 0.072 | binding of anti-Id to peptide (OD at 405 nm) ([2]; Table 2, anti-Id 5 μg/ml): 0.273 | binding of anti-Id to peptide (OD at 405 nm) [2, 6]: 1.356

PPQKHLL [Pep 14]
binding of control IgG to peptide (OD at 405 nm) ([1]; Table 2, control IgG 1 μg/ml): 0.079 | binding of control IgG to peptide (OD at 405 nm) ([1]; Table 2, control IgG 5 μg/ml): 0.083 | binding of anti-Id to peptide (OD at 405 nm) ([2]; Table 2, anti-Id 1 μg/ml): 0.113 | binding of anti-Id to peptide (OD at 405 nm) ([2]; Table 2, anti-Id 2.5 μg/ml): 0.234 | binding of anti-Id to peptide (OD at 405 nm) ([2]; Table 2, anti-Id 5 μg/ml): 0.611 | binding of anti-Id to peptide (OD at 405 nm) [2, 6]: 0.987

YYCARFLWEPYAMDYWGQGS [Pep 707, 16.6 monoclonal antibody CDR3-based peptide]
specificity of the elution peak from the column bound with the peptide [4]: reacted in a non-specific manner | induction of SLE-like disease in mice [5]: can cause SLE symptoms | induction of SLE-like disease in mice ([5]; listed as pCDR3): induced a mild SLE-like disease
